Results reported in article PMC6646405, “A quantitative, high-throughput method identifies protein–glycan interactions via mass spectrometry” (Communications Biology, 2019).
Values joined by “and” are separate entries in the source; they are usually repeats but may differ in a detail not shown here. Equal values may be shown once.

Key:
[1] = system: Maackia amurensis lectins (MAA); experiment: CUPRA library screening and affinity, MAA; format: binding; conditions: 50uM MAA; mean of 4 DIi values, FigS3c
Experimental: Unless otherwise noted, the measurements were performed at 25 °C. […] We identified specific ligands from the depletion index (DIi, Eq. 1) – the change in the fractional abundance (Fi, Eq. 2) ratio of ligand i-bound and free ^UniPproxy ions upon addition of GBP. Prior to calculating Fi, we treated each mass spectrum with the Sliding Window Adducts Removal Method (SWARM)[18] to remove contributions to the abundance of ^UniPproxy -OS^mod complex ions from adducts, formed by the ESI process, of neighbouring complex ions (Supplementary Fig. 2). Shown in Fig. 2a is a summary of the DIi measured by CUPRA screening of the 66-component library against S4 (50 μM). As expected, the average DIi for this negative control is close to 1.0 (0.99 ± 0.03). In contrast, CUPRA screening against the positive controls produced decreases in DIi for one or more of the library components. […] Application of CUPRA to human CD22, part of an important class of Neu5Ac-binding GBPs implicated in both innate and adaptive immunity, correctly identified HMO08 as a ligand (Supplementary Fig. 4a). CUPRA screening of MAA at high concentration (50 μM) identified HMO03 and GA06 as ligands. […]
Using SWARM-treated mass spectra, DIi was calculated for each ligand from the ratio of the fractional abundances (Fi) of ligand (i)-bound and free ^UniPproxy ions in the presence (+GBP) and absence (-GBP) of GBP, Eqs. […]

[2] = molecular target: T1, human neuraminidase 3 (NEU3) (Homo sapiens, UniProt Q9UQ49); experiment: Time-resolved CUPRA enzyme kinetics, NEU3; format: biochemical
T1 construct: made in house
T1 sequence (Q9UQ49 1-428): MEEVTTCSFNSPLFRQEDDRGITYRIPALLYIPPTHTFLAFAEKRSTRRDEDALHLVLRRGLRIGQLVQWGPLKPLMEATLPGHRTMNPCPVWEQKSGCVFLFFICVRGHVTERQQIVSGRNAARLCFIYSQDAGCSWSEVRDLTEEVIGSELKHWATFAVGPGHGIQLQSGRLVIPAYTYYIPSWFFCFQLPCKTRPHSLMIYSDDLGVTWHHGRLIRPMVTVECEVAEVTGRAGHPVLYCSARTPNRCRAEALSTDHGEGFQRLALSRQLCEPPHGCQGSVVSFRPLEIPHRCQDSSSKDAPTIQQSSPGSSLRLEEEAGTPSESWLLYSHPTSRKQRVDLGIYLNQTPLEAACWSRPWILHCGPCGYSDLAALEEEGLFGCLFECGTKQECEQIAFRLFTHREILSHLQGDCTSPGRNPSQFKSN
Experimental: To apply CUPRA in this capacity, two or more substrates of interest are introduced, as their corresponding OS^mod, to a solution containing the desired CAZyme. Changes in substrate concentrations, as well as those of the corresponding enzyme products, are determined from the relative abundances of OS^mod-bound ^UniPproxy measured by time-resolved ESI-MS. Because of the manner in which the substrate and product concentrations are measured, the assay is insensitive to differences in their ESI-MS response factors and, consequently, independent of the nature of the chemical modification catalyzed by the enzyme. As a result, time-resolved CUPRA eliminates the need for calibration curves or internal standards, which are generally required with ESI-MS-based enzyme kinetics assays.
Two glycosyl hydrolases, human neuraminidase 2 (NEU2) and 3 (NEU3), which preferentially cleave α2-3-linked Neu5Ac residues, were used to illustrate the ease with which time-resolved CUPRA can establish substrate specificities. We incubated libraries of the Neu5Ac-containing OS^mod with NEU2 (Fig. 2d) or NEU3 (Fig. 2e) and monitored their conversion to the corresponding desialylated OS^mod products at pH 7 and 25 °C. […] All OS^mod containing terminal α2-3-linked Neu5Ac were substrates of NEU3, with initial rates that are 10–50% that of HMO03. […]

[3] = molecular target: Sambucus nigra lectin (SNA) (Sambucus nigra, UniProt Q41358); format: binding
Sequence of Sambucus nigra lectin (SNA) (Q41358 309-570 limits assumed): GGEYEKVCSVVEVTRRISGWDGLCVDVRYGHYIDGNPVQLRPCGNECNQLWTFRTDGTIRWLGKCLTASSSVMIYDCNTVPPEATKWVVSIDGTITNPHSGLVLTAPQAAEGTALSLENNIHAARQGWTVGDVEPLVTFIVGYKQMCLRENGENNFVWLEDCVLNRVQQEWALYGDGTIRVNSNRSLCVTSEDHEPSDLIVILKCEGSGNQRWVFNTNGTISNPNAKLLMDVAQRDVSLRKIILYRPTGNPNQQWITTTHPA
Sequence of Sambucus nigra lectin (SNA) (Q41358 29-289 partner limits assumed): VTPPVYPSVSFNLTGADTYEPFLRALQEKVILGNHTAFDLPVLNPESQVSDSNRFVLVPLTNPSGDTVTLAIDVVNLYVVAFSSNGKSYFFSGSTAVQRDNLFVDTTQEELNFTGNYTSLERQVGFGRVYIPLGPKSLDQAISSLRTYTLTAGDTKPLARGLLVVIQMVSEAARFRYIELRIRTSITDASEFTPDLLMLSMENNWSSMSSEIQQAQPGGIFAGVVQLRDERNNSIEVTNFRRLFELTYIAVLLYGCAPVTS

[4] = molecular target: Cholera toxin B subunit homopentamer (CTB5) (Vibrio cholerae serotype O1, UniProt P01556); format: binding
Sequence of Cholera toxin B subunit homopentamer (CTB5) (P01556 22-124 limits assumed): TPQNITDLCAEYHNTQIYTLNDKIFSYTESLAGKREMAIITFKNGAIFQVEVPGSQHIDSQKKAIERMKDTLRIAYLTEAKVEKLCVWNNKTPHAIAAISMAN

With CC(=O)N[C@H]1[C@H](O[C@@H]2[C@H](O[C@]3(C(=O)O)C[C@H](O)[C@@H](NC(C)=O)[C@H]([C@H](O)[C@@H](CO)O[C@]4(C(=O)O)C[C@H](O)[C@@H](NC(C)=O)[C@H]([C@H](O)[C@H](O)CO)O4)O3)[C@@H](O)[C@H](O[C@H]3[C@H](O)[C@@H](O)[C@H](N(CCOCCOCCNC(=O)[C@H](Cc4ccccc4)NC(=O)[C@H](Cc4ccccc4)NC(=O)CCCC(=O)NCCc4ccc(S(N)(=O)=O)cc4)C(C)=O)O[C@@H]3CO)O[C@@H]2CO)O[C@H](CO)[C@H](O)[C@@H]1O [GA10, GalNAcβ1-4(Neu5Acα2-8 Neu5Acα2-3)Galβ1-4Glc-CL] the “average DI” value [1] was 1.024, the “substrate specificity of NEU3” value ([2]; pH 7, 25 °C) was “substrates for NEU3” and the “Relative activity NEU3” value ([2]; time-resolved CUPRA, 200 mM aqueous ammonium acetate pH 7, 25 °C, relative to HMO03) was 0.292. The “DIi(5uM SNA)” value [3] was 1 and 0.9993 and 0.9948 and 0.9939, the “average DI” value [3] was 0.9971 and the “DIi(2uM CTB5)” value [4] was 1.017 and 1.023 and 1.026 and 1.032. The “DIi(10uM CTB5)” value [4] was 1.049 and 1.055 and 1.045 and 1.05, the “DIi(10uM CTB5 at 0C)” value [4] was 1.029 and 1.025 and 1.026 and 1.021 and the “average DI” value [4] was 1.025 and 1.0497.
